In test [1] the target is T1, Kappa-type opioid receptor (Homo sapiens, UniProt P41145). The test can be described thus: β-Arrestin2 Assay.
In test [2] the target is T1, Kappa-type opioid receptor. Nature of the test: [35S]GTPγS Coupling Assay. (In general: Binding of GTPγS marks nucleotide exchange on a G protein.)

SMILES strings stand for the structures. pIC50: −log10 of the molar value.

T1 sequence (P41145 whole entry): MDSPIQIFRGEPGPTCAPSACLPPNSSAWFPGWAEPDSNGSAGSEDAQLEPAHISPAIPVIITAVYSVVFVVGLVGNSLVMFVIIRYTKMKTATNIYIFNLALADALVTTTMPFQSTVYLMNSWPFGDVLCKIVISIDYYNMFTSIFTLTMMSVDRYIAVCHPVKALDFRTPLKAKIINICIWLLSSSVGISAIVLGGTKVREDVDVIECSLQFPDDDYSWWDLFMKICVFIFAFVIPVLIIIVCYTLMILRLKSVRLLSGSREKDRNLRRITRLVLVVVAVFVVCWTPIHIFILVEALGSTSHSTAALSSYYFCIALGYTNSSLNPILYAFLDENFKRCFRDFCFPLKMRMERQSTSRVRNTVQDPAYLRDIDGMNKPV

One may read the pIC50 as the IC50 on a negative log10 scale, so that one unit is a factor of ten. Lower therefore signals a large IC50. As to `NC(N)=Nc1ccc2[nH]c3c(c2c1)C[C@@]1(O)[C@@H]2Cc4ccc(O)c5c4[C@@]1(CCN2CC1CC1)[C@H]3O5` [5'-Guanidinonaltrindole (5'-GNTI)], the pIC50 is 9.10 in test [1] and 10.15 in test [2].

Values taken from BindingDB's records for doi:10.1074/jbc.M113.476234 (The Scripps Research Institute, 2013).
